Columns and labels:
Type in all cases: cell-based
Live Jurkat cells = test: Flow cytometry of ROS formation in live Jurkat cells (Example 4); conditions: 100 μM Menadione or 500 nM PMA, 1 hr; 5 μM Far Red ROS Sensor 30 min; 635 nm excitation, emission 650-670 nm
Procedure: Live Jurkat cells were treated with or without either 100 μM Menadione or 500 nM phorbol myristate acetate (PMA) for 1 hr. The cells were stained with 5 μM Far Red ROS Sensor and Hoechst 33342 for 30 mins. The cells were washed 3 times with PBS and then analyzed at approximately 400 events per second on a BD® LSR II flow cytometer (Beckton Dickinson, Franklin Lakes, N.J.) with 635 nm laser excitation and fluorescence emission collected from 650-670 nm.

HepG2 cells = test: Multiplexed measurement of oxidative stress, cytotoxicity and apoptosis in HepG2 cells (Example 10); conditions: 50 μM Nefazodone 24 h
Procedure: For the last 30 min of Nefazodone treatment, the cells were either stained with 5 μM Far Red ROS Sensor and 20 nM Image-IT® DEAD Green™ viability stain (Life Technologies Corp., Carlsbad, Calif.), FIG. 10a) or 5 μM Far Red ROS Sensor and 5 μM fluorogenic CaspaGreen caspase substrate (FIG. 10b). […] Image-iT® DEAD Green™ measures plasma membrane permeability, a marker for cytotoxicity.

RAW macrophages = test: Specificity of ROS signal: NADPH oxidase inhibitor in LPS-treated RAW cells (Example 8); conditions: 500 ng/mL LPS; Far Red ROS Sensor readout
Procedure: (§1) BPAE cells or RAW macrophages were plated in 96-well plates. BPAE cells were treated with or without 100 μM Menadione for 1 h. 100 μM of superoxide scavenger, MnTBAP was added to some of the control and menadione-treated wells for the last 30 min of incubation. RAW cells were treated with or without 500 ng/mL of Lipopolysachharide (LPS) with or without Diphenylenelodinium (DPI), an NADPH oxidase inhibitor.

BPAE cells = test: Specificity of ROS signal: superoxide scavenger in menadione-treated BPAE cells (Example 8); conditions: 100 μM MnTBAP, last 30 min; 100 μM Menadione 1 h; Far Red ROS Sensor readout
Procedure: as §1

CCCCCCCCCCCCCC(=O)O[C@@H]1[C@@H](C)[C@@]2(O)[C@@H](C=C(CO)C[C@]3(O)C(=O)C(C)=C[C@@H]23)[C@@H]2C(C)(C)[C@]12OC(C)=O [PMA, phorbol myristate acetate]
ROS formation after treatment (Live Jurkat cells): increase in ROS formation

CCc1nn(CCCN2CCN(c3cccc(Cl)c3)CC2)c(=O)n1CCOc1ccccc1 [Nefazodone]
apoptosis (fluorogenic CaspaGreen caspase substrate) (HepG2 cells; 5 μM CaspaGreen caspase substrate): increased nuclear staining
oxidative stress (Far Red ROS Sensor) (HepG2 cells; 5 μM Far Red ROS Sensor): causes oxidative stress

c1ccc2c(c1)[I+]c1ccccc1-2 [DPI, Diphenylenelodinium]
effect on ROS caused by LPS (RAW macrophages): inhibited ROS

CC1=CC(=O)c2ccccc2C1=O [Menadione]
ROS formation after treatment (Live Jurkat cells): increase in ROS formation

O=C(O)c1ccc(/C2=C3\C=CC(=N3)/C(c3ccc(C(=O)O)cc3)=c3/cc/c4[n]3[Mn]([Cl])[n]3c2ccc3/C(c2ccc(C(=O)O)cc2)=C2/C=CC(=N2)\C=4c2ccc(C(=O)O)cc2)cc1 [MnTBAP]
effect on ROS caused by Menadione (BPAE cells): inhibited ROS

— patent US20180202936A1, “Modified Hydrocyanine Dyes for the Detection of Reactive Oxygen Species” (Life Technologies Corporation, priority 2010, published 2018)
